Assay results taken from patent publication US12721844B2, “Chronic kidney disease treatment or prevention method” (Japan Tobacco Inc., priority 2019, dated 2026).
“And” between values parts separate entries of the source, which are not always exact repeats. Equal entries are not always repeated.

What was measured:
Assay type in all cases: cell-based
[1] = test system: Escherichia coli WP2 uvrA; assay: Ames test (reverse mutation test), WP2 uvrA; conditions: S9 Mix −, 0.01 μg/plate
Description: (§1) Ames Test (Reverse Mutation Test)
(§2) Two plates per treatment were used.

[2] = test system: Salmonella typhimurium TA98; assay: Ames test (reverse mutation test), TA98; conditions: with S9 mix
Description: as §1, §2

[3] = test system: Salmonella typhimurium TA1535; assay: Ames test (reverse mutation test), TA1535
Description: as §1, §2

[4] = test system: Salmonella typhimurium TA1537; assay: Ames test (reverse mutation test), TA1537
Description: as §1, §2

[5] = test system: Salmonella typhimurium (TA98, TA1537, TA100, and TA1535) and Escherichia coli (WP2 uvrA); assay: Ames test (reverse mutation test), all bacterial tester strains; conditions: any of the bacterial tester strains, with and/or without S9 mix
Description: as §1, §2

[6] = test system: Salmonella typhimurium TA100; assay: Ames test (reverse mutation test), TA100; conditions: with S9 mix
Description: as §1, §2

[7] = with S9 mix, dose 1667 μg/plate
[8] = with S9 mix, dose 5000 μg/plate

Q: How did the “Number of revertant colonies WP2uvrA” value [1] turn out when NC(=O)C(=Cc1ccc([N+](=O)[O-])o1)c1ccco1 [AF-2, 2-(2-Furyl)-3-(5-nitro-2-furyl)acrylamide, reference compound] was run?
A: 74 and 89 and 100 and 87 and 79

Q: Which “Number of revertant colonies TA98” value ([2]; dose 0.5 μg/plate (positive control)) does the source give for Nc1ccc2cc3ccccc3cc2c1 [Example 2AA, 2-Aminoanthracene, reference compound] here?
A: 289

Q: What about the “Number of revertant colonies TA1535” value ([3]; S9 Mix +, 2.0 μg/plate) of the same molecule?
A: 332 and 308 and 331 and 261 and 349

Q: And the “Number of revertant colonies TA1535” value ([3]; with S9 mix, dose 2.0 (2) μg/plate (positive control))?
A: 223 and 146 and 250

Q: What about the “Number of revertant colonies TA1537” value ([4]; with S9 mix, dose 2 μg/plate (positive control)) of the same molecule?
A: 135

Q: Cl.Nc1c2ccccc2nc2ccccc12.O [Example 9AA, 9-Aminoacridine hydrochloride monohydrate, reference compound] was tested. Which “Number of revertant colonies TA1537” value ([4]; without S9 mix, dose 80 μg/plate (positive control)) did it give?
A: 372

Q: How did the “Number of revertant colonies TA1535” value ([3]; with S9 mix, dose 2.3 μg/plate) turn out when CC(C)(C)Oc1cc(F)cc(-c2cc(N)nn2C(F)(F)F)c1 [Metabolite 1] was run?
A: 13

Q: What about the “Number of revertant colonies TA1535” value ([3]; with S9 mix, dose 6.9 μg/plate) of the same molecule?
A: 7

Q: What about the “Number of revertant colonies TA1535” value ([3]; with S9 mix, dose 21 μg/plate) of the same molecule?
A: 6

Q: What about the “Number of revertant colonies TA1535” value ([3]; with S9 mix, dose 62 μg/plate) of the same molecule?
A: 8

Q: And the “Number of revertant colonies TA1535” value ([3]; with S9 mix, dose 185 μg/plate)?
A: 5

Q: What about the “Number of revertant colonies TA1535” value ([3]; with S9 mix, dose 556 μg/plate) of the same molecule?
A: 4

Q: And the “Number of revertant colonies TA1535” value [3, 7]?
A: 4

Q: What about the “Number of revertant colonies TA1535” value [3, 8] of the same molecule?
A: 2

Q: What about the “Number of revertant colonies TA1535” value ([3]; without S9 mix, dose 2.3 μg/plate) of the same molecule?
A: 6

Q: And the “Number of revertant colonies TA1535” value ([3]; without S9 mix, dose 6.9 μg/plate)?
A: 9

Q: What about the “Number of revertant colonies TA1535” value ([3]; without S9 mix, dose 21 μg/plate) of the same molecule?
A: 8

Q: What about the “Number of revertant colonies TA1535” value ([3]; without S9 mix, dose 62 μg/plate) of the same molecule?
A: 8

Q: What about the “Number of revertant colonies TA1535” value ([3]; without S9 mix, dose 185 μg/plate) of the same molecule?
A: 0

Q: And the “Number of revertant colonies TA1535” value ([3]; without S9 mix, dose 556 μg/plate)?
A: 0

Q: What about the “Number of revertant colonies TA1535” value ([3]; without S9 mix, dose 1667 μg/plate) of the same molecule?
A: 0

Q: What about the “Number of revertant colonies TA1535” value ([3]; without S9 mix, dose 5000 μg/plate) of the same molecule?
A: 0

Q: What about the “potential to induce reverse mutations” value [5] of the same molecule?
A: did not show potential to induce reverse mutations

Q: What does the source list for CC(C)(C)Oc1cccc(-c2cc(N)nn2-c2ccccc2)c1 [Metabolite C]?
A: potential to induce reverse mutations, TA98 [2]: showed potential to induce reverse mutations; Number of revertant colonies TA1535 ([3]; S9 Mix −, 2.3 μg/plate): 6; Number of revertant colonies TA1535 ([3]; S9 Mix −, 6.9 μg/plate): 5; Number of revertant colonies TA1535 ([3]; S9 Mix −, 21 μg/plate): 6; Number of revertant colonies TA1535 ([3]; S9 Mix −, 62 μg/plate): 3; Number of revertant colonies TA1535 ([3]; S9 Mix −, 185 μg/plate): 4; Number of revertant colonies TA1535 ([3]; S9 Mix −, 556 μg/plate): 0; Number of revertant colonies TA1535 ([3]; S9 Mix −, 1667 μg/plate): 1; Number of revertant colonies TA1535 ([3]; S9 Mix −, 5000 μg/plate): 0; Number of revertant colonies TA1535 ([3]; with S9 mix, dose 2.3 μg/plate): 8; Number of revertant colonies TA1535 ([3]; with S9 mix, dose 6.9 μg/plate): 8; Number of revertant colonies TA1535 ([3]; with S9 mix, dose 21 μg/plate): 5; Number of revertant colonies TA1535 ([3]; with S9 mix, dose 62 μg/plate): 4; Number of revertant colonies TA1535 ([3]; with S9 mix, dose 185 μg/plate): 5; Number of revertant colonies TA1535 ([3]; with S9 mix, dose 556 μg/plate): 4; Number of revertant colonies TA1535 [3, 7]: 5; Number of revertant colonies TA1535 [3, 8]: 4; Number of revertant colonies TA1537 ([4]; with S9 mix, dose 2.3 μg/plate): 6; Number of revertant colonies TA1537 ([4]; with S9 mix, dose 6.9 μg/plate): 7; Number of revertant colonies TA1537 ([4]; with S9 mix, dose 21 μg/plate): 7; Number of revertant colonies TA1537 ([4]; with S9 mix, dose 62 μg/plate): 9; Number of revertant colonies TA1537 ([4]; with S9 mix, dose 185 μg/plate): 9; Number of revertant colonies TA1537 ([4]; with S9 mix, dose 556 μg/plate): 4; Number of revertant colonies TA1537 [4, 7]: 4; Number of revertant colonies TA1537 [4, 8]: 5; potential to induce reverse mutations, TA100 [6]: showed potential to induce reverse mutations
